Values quoted from earlier work as cited in patent US20080268043A1, “Controlled Release Compositions Comprising an Antipsychotic Agent” (ELAN PHARMA INTERNATIONAL LIMITED, priority 2005, published 2008).

Conditions: within the proposed clinical dose range

- mean terminal half-life: about 6 hours
SMILES: OCCOCCN1CCN(C2=Nc3ccccc3Sc3ccccc32)CC1 [quetiapine]
